According to paper PMC6325200, “Effects of Microplate Type and Broth Additives on Microdilution MIC Susceptibility Assays” (Antimicrobial Agents and Chemotherapy, 2018):
Like-named read-outs stand apart in the source and are kept apart here.

What was measured:
MRSA ATCC 43300 = tested on: MRSA ATCC 43300
Protocol: (§1) A positive control of a row of just the bacteria and a negative control of only the medium were included for every plate tested.
(§2) The compounds along with standard antibiotics were serially diluted 2-fold across the 96-well plates. […] A sample of each culture was then diluted 40-fold in fresh MH broth (in presence and absence of Tween) and incubated at 37°C for 2 to 3 h.
For experiments in the presence of surfactant, 2% beractant (25 mg/ml) was added to the mid-log-phase cultures and mixed gently and added to all the 96-well plates. For experiments in the presence of serum, a mixture of 50% of human serum along with 50% MHB was prepared and used throughout the experiment.

MRSA = settings: literature value; cited from earlier work
Source text: TABLE 1 Literature MIC values for tested antibiotics | column: MIC (µg/ml) (reference[s]) / MRSA

[1] = tested on: S. pneumoniae ATCC 700677 (MDR); experiment: microbe, parasite or virus in culture; settings: n = 2
Protocol: as §1, §2

[2] = tested on: S. aureus GISA NRS 2; ATCC 700698; experiment: microbe, parasite or virus in culture; settings: n = 2
Protocol: as §1, §2

S. pneumoniae ATCC 33440 = experiment: microbe, parasite or virus in culture; settings: n = 2
Protocol: as §1, §2

E. faecalis ATCC 29212 = experiment: microbe, parasite or virus in culture; settings: n = 2
Protocol: as §1, §2

[3] = tested on: MSSA S. aureus ATCC 25923; experiment: microbe, parasite or virus in culture; settings: n = 2
Protocol: as §1, §2

S. pyogenes ATCC 12344 = settings: n = 2
Protocol: as §1, §2

[4] = literature values, reference given; cited from earlier work
Source text: Other assay additives can affect MIC values. […] Plasma protein binding has been implicated as a major factor limiting the active free concentration of many clinically important antibiotics ([37][–][42]).

[5] = Corning flat NBS plate, MHB +0.002% T80, no further additive, n = 2
[6] = Corning flat PS plate, MHB −T80, no additive, n = 2

CNC(=O)[C@H](CCCCNC(=O)[C@H]1NC(=O)[C@H]2NC(=O)[C@H](NC(=O)[C@@H]3NC(=O)[C@H](CC(N)=O)NC(=O)[C@H](NC(=O)[C@@H](CC(C)C)NC)[C@H](O)c4ccc(c(Cl)c4)Oc4cc3cc(c4O[C@@H]3O[C@H](CO)[C@@H](O)[C@H](O)[C@H]3O[C@H]3C[C@](C)(N)[C@H](O)[C@H](C)O3)Oc3ccc(cc3Cl)[C@H]2O)c2ccc(O)c(c2)-c2c(O)cc(O)cc21)NC(=O)[C@H](CCCCN)NC(=O)[C@H](CCCCN)NC(=O)[C@H](CCCCNC(=O)c1ccc(Oc2ccccc2)cc1)NC(=O)c1ccc(Oc2ccccc2)cc1 [MCC310]
0.007 µg/mL: MIC (MRSA ATCC 43300; [5])
4 µg/mL: MIC (MRSA ATCC 43300; [6])

CN[C@H](CC(C)C)C(=O)N[C@H]1C(=O)N[C@@H](CC(N)=O)C(=O)N[C@H]2C(=O)N[C@H]3C(=O)N[C@H](C(=O)N[C@H](C(=O)O)c4cc(O)cc(O)c4-c4cc3ccc4O)[C@H](O)c3ccc(c(Cl)c3)Oc3cc2cc(c3O[C@@H]2O[C@H](CO)[C@@H](O)[C@H](O)[C@H]2O[C@H]2C[C@](C)(N)[C@H](O)[C@H](C)O2)Oc2ccc(cc2Cl)[C@H]1O [Vancomycin, vancomycin]
around 1 µg/ml: MIC (MRSA ATCC 43300; regardless of plate type or addition of T80)
2 ([62]) µg/ml: MIC (literature) (MRSA)
0.125 to 0.25 µg/mL: MIC (S. pyogenes ATCC 12344; Corning NBS, MHB +T80) | MIC (S. pyogenes ATCC 12344; Corning NBS, MHB -T80) | MIC (S. pyogenes ATCC 12344; Corning TC, MHB +T80)
0.25 µg/mL: MIC (MRSA ATCC 43300; Trek PS, MH + 2% LHB, no additive, n = 2) | MIC (MRSA ATCC 43300; Trek PS, MH, 50% HS, n = 2)
0.5 to 2 µg/mL: MIC (MRSA ATCC 43300; Corning PS, MH + T80, 2% LS, n = 2)
0.25 to 1 µg/mL: MIC (MRSA ATCC 43300; Corning TC, MH, 2% LS, n = 2)
0.06 to 1 µg/mL: MIC (MRSA ATCC 43300; Trek PS, MH + T80, 2% LS, n = 2)
1 µg/mL: MIC ([1]; Corning PS, MHB +T80) | MIC ([1]; Corning PS, MHB -T80) | MIC ([1]; Corning TC, MHB -T80) | MIC (S. pneumoniae ATCC 33440; Corning PS, MHB +T80) | MIC (S. pneumoniae ATCC 33440; Corning PS, MHB -T80) | MIC (S. pneumoniae ATCC 33440; Corning TC, MHB +T80) | MIC (E. faecalis ATCC 29212; Corning NBS, MHB +T80) | MIC (E. faecalis ATCC 29212; Corning PS, MHB +T80) | MIC (E. faecalis ATCC 29212; Corning PS, MHB -T80) | MIC (E. faecalis ATCC 29212; Corning TC, MHB +T80) | MIC ([3]; Corning TC, MHB +T80) | MIC (MRSA ATCC 43300; Corning NBS, MH + 2% LHB, no additive, n = 2) | MIC (MRSA ATCC 43300; Corning NBS, MH + T80, 50% HS, n = 2) | MIC (MRSA ATCC 43300; Corning PS, MH + 2% LHB, no additive, n = 2) | MIC (MRSA ATCC 43300; [5]) | MIC (MRSA ATCC 43300; Corning flat TC plate, MHB +0.002% T80, no further additive, n = 2) | MIC (MRSA ATCC 43300; Nunc U TC plate, MHB +0.002% T80, n = 2) | MIC (MRSA ATCC 43300; Nunc flat PS plate, MHB +0.002% T80, n = 2) | MIC (MRSA ATCC 43300; Nunc flat PS plate, MHB −T80, n = 2) | MIC (MRSA ATCC 43300; Nunc flat TC plate, MHB +0.002% T80, n = 2) | MIC (MRSA ATCC 43300; Trek flat PS plate, MHB +0.002% T80, no further additive, n = 2)
0.03 µg/mL: MIC (MRSA ATCC 43300; Trek PS, MH, 2% LS, n = 2)
0.5 to 1 µg/mL: MIC ([1]; Corning TC, MHB +T80) | MIC ([2]; Corning NBS, MHB +T80) | MIC ([2]; Corning PS, MHB +T80) | MIC ([2]; Corning PS, MHB -T80) | MIC ([2]; Corning TC, MHB -T80) | MIC (S. pneumoniae ATCC 33440; Corning NBS, MHB +T80) | MIC (S. pneumoniae ATCC 33440; Corning NBS, MHB -T80) | MIC (S. pneumoniae ATCC 33440; Corning TC, MHB -T80) | MIC ([3]; Corning NBS, MHB -T80) | MIC ([3]; Corning PS, MHB -T80) | MIC ([3]; Corning TC, MHB -T80) | MIC (MRSA ATCC 43300; Corning NBS, MH + 2% LHB, 2% LS, n = 2) | MIC (MRSA ATCC 43300; Corning NBS, MH + 2% LHB, 50% HS, n = 2) | MIC (MRSA ATCC 43300; Corning PS, MH + 2% LHB, 2% LS, n = 2) | MIC (MRSA ATCC 43300; Corning PS, MH + 2% LHB, 50% HS, n = 2) | MIC (MRSA ATCC 43300; Corning PS, MH, 2% LS, n = 2) | MIC (MRSA ATCC 43300; Corning TC, MH + 2% LHB, 2% LS, n = 2) | MIC (MRSA ATCC 43300; Corning TC, MH + T80, 50% HS, n = 2) | MIC (MRSA ATCC 43300; Trek flat PS plate, MHB −T80, no additive, n = 2)
1 to 2 µg/mL: MIC ([1]; Corning NBS, MHB +T80) | MIC (E. faecalis ATCC 29212; Corning NBS, MHB -T80) | MIC (E. faecalis ATCC 29212; Corning TC, MHB -T80) | MIC ([3]; Corning NBS, MHB +T80) | MIC ([3]; Corning PS, MHB +T80) | MIC (MRSA ATCC 43300; Corning flat PS plate, MHB +0.002% T80, no further additive, n = 2) | MIC (MRSA ATCC 43300; Nunc flat TC plate, MHB −T80, n = 2)
0.25 to 0.5 µg/mL: MIC (MRSA ATCC 43300; Corning NBS, MH + T80, 2% LS, n = 2) | MIC (MRSA ATCC 43300; Corning NBS, MH, 50% HS, n = 2) | MIC (MRSA ATCC 43300; Corning PS, MH, 50% HS, n = 2) | MIC (MRSA ATCC 43300; Corning TC, MH, 50% HS, n = 2) | MIC (MRSA ATCC 43300; Trek PS, MH + 2% LHB, 2% LS, n = 2) | MIC (MRSA ATCC 43300; Trek PS, MH + T80, 50% HS, n = 2)
0.125 µg/mL: MIC (S. pyogenes ATCC 12344; Corning PS, MHB +T80) | MIC (S. pyogenes ATCC 12344; Corning PS, MHB -T80) | MIC (S. pyogenes ATCC 12344; Corning TC, MHB -T80)
0.5 µg/mL: MIC ([1]; Corning NBS, MHB -T80) | MIC ([2]; Corning NBS, MHB -T80) | MIC ([2]; Corning TC, MHB +T80) | MIC (MRSA ATCC 43300; Corning NBS, MH, 2% LS, n = 2) | MIC (MRSA ATCC 43300; Corning PS, MH + T80, 50% HS, n = 2) | MIC (MRSA ATCC 43300; Corning TC, MH + 2% LHB, 50% HS, n = 2) | MIC (MRSA ATCC 43300; Corning TC, MH + 2% LHB, no additive, n = 2) | MIC (MRSA ATCC 43300; Corning TC, MH + T80, 2% LS, n = 2) | MIC (MRSA ATCC 43300; Corning flat NBS plate, MHB −T80, no additive, n = 2) | MIC (MRSA ATCC 43300; [6]) | MIC (MRSA ATCC 43300; Corning flat TC plate, MHB −T80, no additive, n = 2) | MIC (MRSA ATCC 43300; Nunc U TC plate, MHB −T80, n = 2) | MIC (MRSA ATCC 43300; Trek PS, MH + 2% LHB, 50% HS, n = 2)
55%: protein binding [4]

CC(=O)NC[C@H]1CN(c2ccc(N3CCOCC3)c(F)c2)C(=O)O1 [linezolid]
31%: protein binding [4]

C[C@@H](O)[C@H]1C(=O)N2C(C(=O)O)=C(S[C@@H]3CN[C@H](C(=O)N(C)C)C3)[C@H](C)[C@H]12 [meropenem]
2%: protein binding [4]

daptomycin
92%: protein binding [4]
